Experimental data reported in patent US20090104145A1, “Mixtures of Anthranilamide Invertebrate Pest Control Agents” (priority 2004, published 2009).

Legend:
Test in all cases: whole plant or invertebrate
Type in all cases: in vivo
[1] = test system: diamondback moth (Plutella xylostella); details: for mortality at 10 ppm: rate 10 ppm; for mortality at 2 ppm: rate 2 ppm; for mortality at 0.08 ppm: rate 0.08 ppm; for mortality at 0.4 ppm: rate 0.4 ppm
Method: (§1) The pest control protection afforded by the mixtures or compositions is not limited, however, to these species. The analysis of synergism or antagonism between the mixtures or compositions was determined using Colby's equation. The average % mortality data for the test compounds alone were inserted into the Colby's equation. If the observed average % mortality was higher than “p”, the expected % mortality, the mixture or composition had synergistic effects. If the observed average % mortality was equal to or lower than the expected mortality, the mixture or composition either had no synergistic effect or an antagonistic effect. In these tests, Compound 1 is the compound of Formula 1.
For evaluating control of diamondback moth (Plutella xylostella), cabbage (var. Stonehead) plants were grown in Metromix potting soil in 10-cm pots in aluminum trays to test size (28 days, 3-4 full leaves) the plants were sprayed to the point of runoff using the turntable sprayer as described in Test I. Test compounds were formulated and sprayed on test plants as described for Test I. After drying for 2 hours, the treated leaves were excised and infested with one cabbage looper per cell and covered. The test units were placed on trays and put in a growth chamber at 25° C. and 60% relative humidity for 4 days.

[2] = test system: silverleaf whitefly (Bemisia argentifolii Bellows and Perring); details: for % mortality (obs): Table 2B, compound alone
Method: as §1
For evaluating control of silverleaf whitefly (Bemisia argentifolii Bellows and Perring) through contact and/or systemic means, each test unit consisted of a small open container with a 12- to 14-day-old cotton plant inside. This was pre-infested by placing test units into cages infested with adult whiteflies so that oviposition on the cotton leaves could occur. The adults were removed from the plants with an air-blast nozzle, and the test units were capped. The test units were then stored 2 to 3 days before spraying.
(§2) Test compounds were formulated using a solution containing 10% acetone, 90% water and 300 ppm X-77® Spreader Lo-Foam Formula non-ionic surfactant containing alkylarylpolyoxyethylene, free fatty acids, glycols and isopropanol (Loveland Industries, Inc.) to provide the desired concentration in ppm. Formulated test solutions were then applied in 1 mL volumes through a SUJ2 atomizer nozzle with ⅛ JJ custom body (Spraying Systems Co.) positioned 1.27 cm (0.5 inches) above the top of each test unit.
The results for all experimental compositions in this test were replicated three times. After spraying of the formulated test composition, each test unit was allowed to dry for 1 hour and the cap removed. The test units were held for 13 days in a growth chamber at 28° C. and 50-70% relative humidity.

[3] = test system: western flower thrip (Frankliniella occidentalis Pergande)
Method: as §1, §2
For evaluating control of the western flower thrip (Frankliniella occidentalis Pergande) through contact and/or systemic means, each test unit consisted of a small open container with a 5- to 7-day-old bean (var. Soleil) plant inside.
Test solutions were formulated and sprayed with 3 replications as described for Test A. After spraying, the test units were allowed to dry for 1 hour, 22 to 27 adult thrips were added to each unit and then a black, screened cap was placed on top. The test units were held for 7 days at 25° C. and 45-55% relative humidity.

[4] = test system: green peach aphid (Myzus persicae Sulzer)
Method: as §1, §2
(§3) For evaluating control of green peach aphid (Myzus persicae Sulzer) through contact and/or systemic means, each test unit consisted of a small open container with a 12- to 15-day-old radish plant inside. This was pre-infested by placing on a leaf of the test plant 30 to 40 aphids on a piece of leaf excised from a culture plant (cut-leaf method). The larvae moved onto the test plant as the leaf piece desiccated. After pre-infestation, the soil of the test unit was covered with a layer of sand.
(§4) Test compounds were formulated and sprayed as described in Test A, replicated three times. After spraying of the formulated test compound, each test unit was allowed to dry for 1 hour and then a black, screened cap was placed on top. The test units were held for 6 days in a growth chamber at 19-21° C. and 50-70% relative humidity.

[5] = test system: potato leafhopper (Empoasca fabae Harris); details: Compound 1 0 ppm
Method: as §1, §2
For evaluating control of potato leafhopper (Empoasca fabae Harris) through contact and/or systemic means, each test unit consisted of a small open container with a 5- to 6-day-old Longio bean plant (primary leaves emerged) inside. White sand was added to the top of the soil, and one of the primary leaves was excised prior to application. Test compounds were formulated and sprayed with 3 replications as described for Test A. After spraying, the test units were allowed to dry for 1 hour before they were infested with 5 potato leafhoppers (18- to 21-day-old adults). A black, screened cap was placed on the top of each container. The test units were held for 6 days in a growth chamber at 19-21° C. and 50-70% relative humidity.

[6] = test system: cotton melon aphid (Aphis gossypii Glover)
Method: as §1, §2
as §3, with “cotton melon” for “green peach”, “(Aphis gossypii Glover)” for “(Myzus persicae Sulzer)”, “6-” for “12-”, “7-day-old cotton” for “15-day-old radish”
as §4, with “described for” for “described in”, “Test A. The applications were” for “Test A,”, “test compounds,” for “test compound,”

[7] = Plutella xylostella, in Brassica oleracea, read-out: % mortality (obs)
[8] = Plutella xylostella, in Brassica oleracea, rate 1000 ppm, read-out: % mortality (obs)
[9] = Plutella xylostella, in Brassica oleracea, rate 100 ppm, read-out: % mortality (obs)
[10] = Plutella xylostella, in Brassica oleracea, rate 1 ppm, read-out: % mortality (obs)

Cc1ccc(/N=C/N(C)/C=N/c2ccc(C)cc2C)c(C)c1 [Amitraz, amitraz]
% mortality ([1]; rate 10): 70%
% mortality ([1]; rate 100): 20%
% mortality ([1]; rate 1000): 50%

CC(C)N1C(=O)N(c2ccccc2)CS/C1=N\C(C)(C)C [Buprofezin, buprofezin]
mortality at 10 ppm [1, 7]: 30%
mortality at 1000 ppm [1, 8]: 60%

CCOP(=S)(OCC)Oc1nc(Cl)c(Cl)cc1Cl [Chlorpyrifos, chlorpyrifos]
mortality at 10 ppm [1, 7]: 80%
mortality at 100 ppm [1, 9]: 40%
mortality at 1000 ppm [1, 8]: 50%

CNC(=O)c1cc(C#N)cc(C)c1NC(=O)c1cc(Br)nn1-c1ncccc1Cl [Compund 1]
% mortality (obs) ([2]; rate 7 ppm): 30%
% mortality (obs) ([2]; rate 9 ppm): 53%
% mortality (obs) ([2]; rate 12 ppm): 71%

Nc1nc(N)nc(NC2CC2)n1 [Cyromazine, cyromazine]
mortality at 20 ppm ([1]; Plutella xylostella, in Brassica oleracea, rate 20 ppm, read-out: % mortality (obs)): 60%
mortality at 40 ppm ([1]; Plutella xylostella, in Brassica oleracea, rate 40 ppm, read-out: % mortality (obs)): 90%
mortality at 60 ppm ([1]; Plutella xylostella, in Brassica oleracea, rate 60 ppm, read-out: % mortality (obs)): 80%

CC1(C)[C@H](C(=O)O[C@H](C#N)c2cccc(Oc3ccccc3)c2)[C@@H]1C=C(Br)Br [Deltamethrin, deltamethrin]
mortality at 0.1 ppm ([1]; Plutella xylostella, in Brassica oleracea, rate 0.1 ppm, read-out: % mortality (obs)): 90%
mortality at 0.3 ppm ([1]; Plutella xylostella, in Brassica oleracea, rate 0.3 ppm, read-out: % mortality (obs)): 90%
mortality at 1 ppm [1, 10]: 90%

CCOC(=O)NCCOc1ccc(Oc2ccccc2)cc1 [Fenoxycarb, fenoxycarb]
mortality at 10 ppm [1, 7]: 90%
mortality at 100 ppm [1, 9]: 90%
mortality at 1000 ppm [1, 8]: 90%

N#CCNC(=O)c1cnccc1C(F)(F)F [Flonicamid, flonicamid]
% mortality ([1]; rate 1): 0%
% mortality ([1]; rate 15): 60%
% mortality ([1]; rate 1000): 30%

O=C(NC(=O)c1c(F)cccc1F)Nc1cc(Cl)c(OC(F)(F)C(F)F)c(Cl)c1 [Hexaflumuron, hexaflumuron]
mortality at 0.5 ppm ([1]; Plutella xylostella, in Brassica oleracea, rate 0.5 ppm, read-out: % mortality (obs)): 70%
mortality at 1 ppm [1, 10]: 30%
mortality at 2 ppm [1, 7]: 70%
mortality at 10 ppm ([3]; Frankliniella occidentalis, rate 10 ppm, read-out: % mortality (obs)): 20%
mortality at 3000 ppm ([3]; Frankliniella occidentalis, rate 3000 ppm, read-out: % mortality (obs)): 60%

CC1(C)CNC(=NN=C(/C=C/c2ccc(C(F)(F)F)cc2)/C=C/c2ccc(C(F)(F)F)cc2)NC1 [Hydramethylnon, hydramethylnon]
mortality at 0.01 ppm ([1]; Plutella xylostella, in Brassica oleracea, rate 0.01 ppm, read-out: % mortality (obs)): 70%
mortality at 0.05 ppm ([1]; Plutella xylostella, in Brassica oleracea, rate 0.05 ppm, read-out: % mortality (obs)): 50%
mortality at 0.2 ppm ([1]; Plutella xylostella, in Brassica oleracea, rate 0.2 ppm, read-out: % mortality (obs)): 60%

O=[N+]([O-])NC1=NCCN1Cc1ccc(Cl)nc1 [Imidacloprid, imidacloprid]
mortality at 0.3 ppm ([4]; Myzus persicae, in Raphanus sativus, read-out: % Mortality (observed)): 50%
% Mortality (observed) ([5]; Imidacloprid 0.4 ppm): 20%
% Mortality (observed) ([5]; Imidacloprid 1.4 ppm): 0%
% Mortality (observed) ([5]; Imidacloprid 4.6 ppm): 20%

COC(=O)N(C(=O)N1CO[C@@]2(C(=O)OC)Cc3cc(Cl)ccc3C2=N1)c1ccc(OC(F)(F)F)cc1 [Indoxacarb, indoxacarb]
% mortality (obs) ([1]; rate 0.02 ppm): 80%
% mortality (obs) ([1]; rate 0.05 ppm): 40%

O=C(NC(=O)c1c(F)cccc1F)Nc1cc(Cl)c(OC(F)(F)C(F)C(F)(F)F)cc1Cl (stereo not drawn) [Lufenuron, lufenuron]
mortality at 0.08 ppm [1, 7]: 80%
mortality at 0.4 ppm [1, 7]: 80%
mortality at 2 ppm [1, 7]: 90%

CNC(=O)ON=C(C)SC [Methomyl, methomyl]
% mortality ([1]; rate 30): 80%
% mortality ([1]; rate 40): 90%
% mortality ([1]; rate 50): 80%

COc1cccc(C(=O)NN(C(=O)c2cc(C)cc(C)c2)C(C)(C)C)c1C [Methoxyfenozide, methoxyfenozide]
mortality at 0.08 ppm [1, 7]: 90%
mortality at 0.4 ppm [1, 7]: 90%
mortality at 2 ppm [1, 7]: 90%
mortality at 5 ppm ([6]; Aphis gossypii, rate 5 ppm, read-out: % mortality (obs)): 22%
mortality at 50 ppm ([6]; Aphis gossypii, rate 50 ppm, read-out: % mortality (obs)): 20%
mortality at 500 ppm ([6]; Aphis gossypii, rate 500 ppm, read-out: % mortality (obs)): 26%

CCN(Cc1ccc(Cl)nc1)/C(=C/[N+](=O)[O-])NC [Nitenpyram, nitenpyram]
% mortality (obs) ([1]; rate 30 ppm): 90%
% mortality (obs) ([1]; rate 150 ppm): 90%

CNC(=O)O/N=C(\SC)C(=O)N(C)C [Oxamyl, oxamyl]
% mortality (obs) ([1]; rate 1 ppm): 60%

CCc1ccc(C(=O)NN(C(=O)c2cc(C)cc(C)c2)C(C)(C)C)cc1 [Tebufenozide, tebufenozide]
mortality at 150 ppm ([1]; Plutella xylostella, in Brassica oleracea, rate 150 ppm, read-out: % mortality (obs)): 90%
mortality at 200 ppm ([1]; Plutella xylostella, in Brassica oleracea, rate 200 ppm, read-out: % mortality (obs)): 90%
mortality at 300 ppm ([1]; Plutella xylostella, in Brassica oleracea, rate 300 ppm, read-out: % mortality (obs)): 90%

CS/C(C)=N\OC(=O)N(C)SN(C)C(=O)O/N=C(\C)SC [Thiodicarb, thiodicarb]
% mortality (obs) ([1]; rate 100 ppm): 90%
% mortality (obs) ([1]; rate 1000 ppm): 90%
% mortality (obs) ([1]; rate 3000 ppm): 90%

dieldrin
% mortality ([1]; rate 2): 90%
% mortality ([1]; rate 2.5): 100%
% mortality ([1]; rate 3): 100%

pyridaben
% mortality ([1]; rate 100): 100%
% mortality ([1]; rate 150): 80%
% mortality ([1]; rate 200): 100%

spinosad
% mortality ([1]; rate 10): 100%
% mortality ([1]; rate 100): 90%
% mortality ([1]; rate 1000): 100%

thiamethoxam
% mortality ([1]; rate 30): 90%
% mortality ([1]; rate 40): 100%
% mortality ([1]; rate 50): 100%
% Mortality (observed) ([4]; 0.2 ppm): 23%
% Mortality (observed) ([4]; 0.3 ppm): 23%
% Mortality (observed) ([4]; 0.5 ppm): 93%
% Mortality (observed) ([6]; Thiamethoxam 0.5 ppm): 22%
% Mortality (observed) ([6]; Thiamethoxam 0.8 ppm): 83%
% Mortality (observed) ([6]; Thiamethoxam 1 ppm): 91%
% Mortality (observed) ([3]; Thiamethoxam 1 ppm alone): 33%
% Mortality (observed) ([3]; Thiamethoxam 5.5 ppm alone): 43%
% Mortality (observed) ([3]; Thiamethoxam 29 ppm alone): 43%
% Mortality (observed) ([2]; Thiamethoxam 15 ppm alone): 53%
% Mortality (observed) ([2]; Thiamethoxam 26 ppm alone): 65%
